Measured values: ChEMBL document CHEMBL4411276, “Chemistry-oriented synthesis (ChOS) and target deconvolution on neuroprotective effect of a novel scaffold, oxaza spiroquinone” (Eur J Med Chem, 2019)

Key:
BV-2 = assay: Anti-inflammatory activity in mouse BV2 cells assessed as reduction in LPS-induced NO production pre-treated before LPS stimulation for 24 hrs by Griess reagent-based assay; assay type: functional, cell-based
[1] = Cytotoxicity against LPS-stimulated mouse BV2 cells assessed as cell survival after 24 hrs by MTT assay relative to control; assay type: cell-based, BV-2; design: concentration or dose not given beside the values; conditions: read-out: Survival
[2] = Cytotoxicity against mouse BV2 cells assessed as cell survival after 24 hrs by MTT assay relative to control; assay type: cell-based, BV-2; design: concentration or dose not given beside the values; conditions: read-out: Survival

Row | Structure (SMILES) | IC50 (BV-2) [nM] | viability at 24 h [1] [%] | viability at 24 h [2] [%]
1 | Cc1cc(C)cc(CC2COC3(C=CC(=O)C=C3)N(c3ccccc3)C2=O)c1 (stereo unspecified) | 1820 | 78 | 94.2
2 | O=C1C=CC2(C=C1)OCC(Cc1ccc(C(F)(F)F)cc1[N+](=O)[O-])C(=O)N2c1ccccc1 (stereo unspecified) | 970 |  | 
3 | CC1COC2(C=CC(=O)C=C2)N(c2ccccc2)C1=O (stereo unspecified) | 1220 | 72.8 | 86.1
4 | O=C1C=CC2(C=C1)OCC(Cc1cc(C(F)(F)F)ccc1Cl)C(=O)N2c1ccccc1 (stereo unspecified) | 770 | 64.4 | 70.5
5 | O=C1C=CC2(C=C1)OCC(Cc1ccc([N+](=O)[O-])cc1)C(=O)N2c1ccccc1 (stereo unspecified) | 430 | 82.7 | 95.5
6 | O=C1C=CC2(C=C1)OCC(Cc1cccc(Br)c1)C(=O)N2c1ccccc1 (stereo unspecified) | 540 | 74 | 96
7 | O=C1C=CC2(C=C1)OCC(Cc1ccccc1)C(=O)N2c1ccccc1 (stereo unspecified) | 570 | 76.1 | 82.1
8 | O=C1C=CC2(C=C1)OCC(Cc1ccc(F)cc1)C(=O)N2c1ccccc1 (stereo unspecified) | 400 | 85.2 | 82.9
9 | O=C1C=CC2(C=C1)OCCC(=O)N2c1ccccc1 | 1300 | 79.8 | 102
10 | C=CCCC1COC2(C=CC(=O)C=C2)N(c2ccccc2)C1=O (stereo unspecified) | 730 | 80.4 | 89
11 | O=C1C=CC2(C=C1)OCC(Cc1c(F)cccc1C(F)(F)F)C(=O)N2c1ccccc1 (stereo unspecified) | 600 | 71.1 | 84.4
12 | C=C(C)CC1COC2(C=CC(=O)C=C2)N(c2ccccc2)C1=O (stereo unspecified) | 450 | 80.1 | 91.4
13 | O=C1C=CC2(C=C1)OCC(Cc1ccc(C(F)(F)F)cc1)C(=O)N2c1ccccc1 (stereo unspecified) | 1650 | 84.1 | 87.1
14 | CNC(=N)NCCC[C@H](N)C(=O)O [TILARGININE] | 16000 | 60.5 | 
15 | C=CCC1COC2(C=CC(=O)C=C2)N(c2ccccc2)C1=O (stereo unspecified) | 1030 | 84.6 | 89.7
16 | O=C1C=CC2(C=C1)OCC(Cc1ccc(Cl)cc1)C(=O)N2c1ccccc1 (stereo unspecified) | 540 | 79 | 91
17 | O=C1C=CC2(C=C1)OCC(Cc1ccccc1CS(=O)(=O)c1ccccc1)C(=O)N2c1ccccc1 (stereo unspecified) | 980 | 84.3 | 97.5
18 | O=C1C=CC2(C=C1)OCC(Cc1ccc(Br)cc1)C(=O)N2c1ccccc1 (stereo unspecified) | 1380 | 72 | 82.7
